Columns and labels:
[1] = target: T1, myocardial ATP-sensitive potassium channel (SUR2A/Kir6.2) (UniProt Q61743+Q63563); assay: Rubidium efflux test on HEK293 cells transfected with SUR2A and Kir6.2 (myocardial action); assay type: cell-based, SUR2A from the rat, Kir6.2 from the mouse; conditions: HEK293 cells transfected with SUR2A/Kir6.2; KATP channels opened by rilmakalim; 25 min incubation; read-out: IC50 values for the inhibition of the rubidium efflux
T1 construct: expressed in transfected cells
T1 sequence (Q63563 whole entry): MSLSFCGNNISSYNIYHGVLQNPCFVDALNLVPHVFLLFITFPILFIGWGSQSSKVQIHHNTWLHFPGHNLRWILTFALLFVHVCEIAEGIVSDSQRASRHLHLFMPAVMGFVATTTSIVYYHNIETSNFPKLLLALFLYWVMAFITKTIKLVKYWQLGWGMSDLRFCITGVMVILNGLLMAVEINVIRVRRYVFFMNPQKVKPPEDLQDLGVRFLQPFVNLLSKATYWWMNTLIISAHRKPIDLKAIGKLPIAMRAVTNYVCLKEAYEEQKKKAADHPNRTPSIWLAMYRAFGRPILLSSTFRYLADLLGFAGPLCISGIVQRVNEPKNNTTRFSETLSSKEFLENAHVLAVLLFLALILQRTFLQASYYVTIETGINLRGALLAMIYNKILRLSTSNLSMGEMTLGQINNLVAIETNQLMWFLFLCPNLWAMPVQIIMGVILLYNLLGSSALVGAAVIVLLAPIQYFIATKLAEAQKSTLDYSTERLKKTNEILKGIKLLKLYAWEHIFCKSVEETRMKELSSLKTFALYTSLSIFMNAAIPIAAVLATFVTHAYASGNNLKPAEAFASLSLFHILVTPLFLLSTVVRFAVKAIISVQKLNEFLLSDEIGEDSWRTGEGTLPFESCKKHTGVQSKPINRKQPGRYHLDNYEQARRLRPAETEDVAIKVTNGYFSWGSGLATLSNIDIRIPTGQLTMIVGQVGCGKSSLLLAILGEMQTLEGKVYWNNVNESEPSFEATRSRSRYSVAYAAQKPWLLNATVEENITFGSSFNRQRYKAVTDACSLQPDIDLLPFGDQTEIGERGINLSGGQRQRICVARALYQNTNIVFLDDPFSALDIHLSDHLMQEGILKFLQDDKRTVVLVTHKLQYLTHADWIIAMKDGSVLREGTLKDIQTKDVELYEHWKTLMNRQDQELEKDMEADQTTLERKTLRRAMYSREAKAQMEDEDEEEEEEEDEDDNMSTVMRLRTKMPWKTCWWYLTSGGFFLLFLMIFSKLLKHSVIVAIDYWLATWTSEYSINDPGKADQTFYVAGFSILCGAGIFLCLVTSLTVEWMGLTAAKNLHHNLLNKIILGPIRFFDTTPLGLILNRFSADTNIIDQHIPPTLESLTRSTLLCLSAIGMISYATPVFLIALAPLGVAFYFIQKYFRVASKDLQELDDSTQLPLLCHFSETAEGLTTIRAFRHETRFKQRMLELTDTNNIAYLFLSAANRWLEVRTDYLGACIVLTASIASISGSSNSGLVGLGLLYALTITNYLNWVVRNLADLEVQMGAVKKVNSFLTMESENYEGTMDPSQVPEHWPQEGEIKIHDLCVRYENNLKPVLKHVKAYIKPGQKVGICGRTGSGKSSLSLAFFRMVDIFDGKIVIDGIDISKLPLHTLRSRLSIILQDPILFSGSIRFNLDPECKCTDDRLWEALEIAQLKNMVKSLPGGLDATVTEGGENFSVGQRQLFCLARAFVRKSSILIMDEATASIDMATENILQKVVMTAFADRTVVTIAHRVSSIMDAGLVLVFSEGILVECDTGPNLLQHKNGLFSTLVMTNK
T1 sequence (Q61743 whole entry): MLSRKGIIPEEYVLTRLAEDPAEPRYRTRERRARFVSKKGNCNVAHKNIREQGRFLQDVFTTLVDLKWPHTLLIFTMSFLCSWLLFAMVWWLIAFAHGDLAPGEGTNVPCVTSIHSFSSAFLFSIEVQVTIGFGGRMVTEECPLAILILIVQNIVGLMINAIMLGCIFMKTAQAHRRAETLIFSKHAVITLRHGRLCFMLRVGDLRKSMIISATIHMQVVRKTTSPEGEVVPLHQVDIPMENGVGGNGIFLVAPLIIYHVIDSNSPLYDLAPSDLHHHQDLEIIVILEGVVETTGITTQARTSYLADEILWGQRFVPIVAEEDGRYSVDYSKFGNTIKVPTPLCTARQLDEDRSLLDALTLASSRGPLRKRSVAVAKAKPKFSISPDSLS
Summary of the method: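 HEK293 cells stably expressing mouse Kir6.2 and rat SUR2A loaded 3 h at 37 °C with 5.4 mM RbCl, then test compound added and channels opened with rilmakalim (2 μM, stock as added) for 25 min at 37 °C. Rb+ in supernatant and lysate by atomic absorption; efflux = supernatant/total, IC50 via Hill equation.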

Compound	IC50 [1]	melting point
Cc1c(Br)nc([C@]2(OCC3CC3)CC[C@](C(=O)O)(c3ccc(F)cc3)CC2)n1CC1CC1 [Example 350, Cis 4-(4-Bromo-1-cyclopropylmethyl-5-methyl-1H-imidazol-2-yl)-4-cyclopropylmethoxy-1-(4-fluorophenyl)cyclohexanecarboxylic Acid]	< 1000 nM	210 °C
Cc1nc([C@]2(OCC3CC3)CC[C@](C(=O)O)(c3ccc(F)cc3)CC2)n(CC2CC2)c1Br [Example 354, Cis-4-(5-Bromo-1-cyclopropylmethyl-4-methyl-1H-imidazol-2-yl)-4-cyclopropylmethoxy-1-(4-fluorophenyl)cyclohexanecarboxylic Acid]	< 1000 nM	190 °C
Cc1cnc([C@]2(OCC3CC3)CC[C@](C(=O)O)(c3ccc(F)cc3)CC2)n1CC1CC1 [Example 357, Cis-4-Cyclopropylmethoxy-4-(1-cyclopropylmethyl-5-methyl-1H-imidazol-2-yl)-1-(4-fluorophenyl)cyclohexanecarboxylic Acid]	< 1000 nM	187 °C
Cc1c(Cl)nc([C@]2(OCC3CC3)CC[C@](C(=O)O)(c3ccc(F)cc3)CC2)n1CC1CC1 [Example 360, Cis-4-(4-Chloro-1-cyclopropylmethyl-5-methyl-1H-imidazol-2-yl)-4-cyclopropylmethoxy-1-(4-fluorophenyl)cyclohexanecarboxylic Acid]	< 1000 nM	185 °C
Cc1nc([C@]2(OCC3CC3)CC[C@](C(=O)O)(c3ccc(F)cc3)CC2)n(CC2CC2)c1Cl [Example 363, Cis-4-(5-Chloro-1-cyclopropylmethyl-4-methyl-1H-imidazol-2-yl)-4-cyclopropylmethoxy-1-(4-fluorophenyl)cyclohexanecarboxylic Acid]	< 1000 nM	184 °C
Cc1nc([C@]2(Oc3ccccc3)CC[C@](C(=O)O)(c3ccccc3)CC2)n(CC2CC2)c1Cl [Example 400, Cis 4-(5-Chloro-1-cyclopropylmethyl-4-methyl-1H-imidazol-2-yl)-4-phenoxy-1-phenylcyclohexanecarboxylic Acid]	< 1000 nM	170 °C
Cc1c(Br)nc([C@]2(Oc3ccccc3)CC[C@](C(=O)O)(c3ccc(F)cc3)CC2)n1CC1CC1 [Example 403, Cis-4-(4-Bromo-1-cyclopropylmethyl-5-methyl-1H-imidazol-2-yl)-4-phenoxy-1-(4-fluorophenyl)cyclohexanecarboxylic Acid]	< 1000 nM	158 °C
Cc1c(C#N)nc([C@]2(OCC3CC3)CC[C@](C(=O)O)(c3ccc(F)cc3)CC2)n1CC1CC1 [Example 418, Cis-4-(4-Cyano-1-cyclopropylmethyl-5-methyl-1H-imidazol-2-yl)-4-cyclopropylmethoxy-1-(4-fluorophenyl)cyclohexanecarboxylic Acid]	< 1000 nM	245 °C
Cc1nc([C@]2(OCC3CC3)CC[C@](C(=O)O)(c3ccccc3)CC2)n(CC2CC2)c1C#N [Example 419, Cis-4-(5-Cyano-1-cyclopropylmethyl-4-methyl-1H-imidazol-2-yl)-4-cyclopropylmethoxy-1-phenylcyclohexanecarboxylic Acid]	< 1000 nM	228 °C
Cc1c(S(C)(=O)=O)nc([C@]2(OCC3CC3)CC[C@](C(=O)O)(c3ccccc3)CC2)n1CC1CC1 [Example 422, Cis-4-Cyclopropylmethoxy-4-(1-cyclopropylmethyl-5-methyl-4-methanesulfonyl-1H-imidazol-2-yl)-1-phenylcyclohexanecarboxylic Acid]	< 1000 nM	242 °C
Cc1nc([C@]2(OCC3CC3)CC[C@](C(=O)O)(c3ccccc3)CC2)n(CC2CC2)c1-c1ccccc1 [Example 426, Cis-4-Cyclopropylmethoxy-4-(1-cyclopropylmethyl-4-methyl-5-phenyl-1H-imidazol-2-yl)-1-phenylcyclohexanecarboxylic Acid]	< 1000 nM	218 °C
Cc1nc([C@]2(OCC3CC3)CC[C@](C(=O)O)(c3ccccc3)CC2)n(CC2CC2)c1-c1ccc(F)cc1 [Example 427, Cis-4-Cyclopropylmethoxy-4-[1-cyclopropylmethyl-5-(4-fluorophenyl)-4-methyl-1H-imidazol-2-yl]-1-phenylcyclohexanecarboxylic Acid]	< 1000 nM	199 °C
O=C(O)[C@]1(c2ccc(F)cc2)CC[C@](OCC2CC2)(c2cn(CC3CC3)c(-c3ccccc3)n2)CC1 [Example 432, Trans-4-Cyclopropylmethoxy-4-(1-cyclopropylmethyl-2-phenyl-1H-imidazol-4-yl)-1-(4-fluorophenyl)cyclohexanecarboxylic Acid]	< 1000 nM	209 °C
CS(=O)(=O)n1c2ccccc2cc1[C@]1(OCC2CC2)CC[C@](C(=O)O)(c2ccccc2)CC1 [Example 440, Cis-4-Cyclopropylmethoxy-4-(1-methanesulfonyl-1H-indol-2-yl)-1-phenylcyclohexanecarboxylic Acid]	< 1000 nM	152 °C
CS(=O)(=O)c1cccc(-c2nc([C@]3(Oc4ccccc4)CC[C@@](C(=O)O)(c4ccccc4)CC3)n(CC3CC3)n2)c1 [Example 463, Trans-4-[2-Cyclopropylmethyl-5-(3-methanesulfonylphenyl)-2H-[1,2,4]triazol-3-yl]-4-phenoxy-1-phenylcyclohexanecarboxylic Acid]	< 1000 nM	198 °C
O=C(O)[C@]1(c2ccccc2)CC[C@@](Oc2ccc(C(F)(F)F)cc2)(c2nc(-c3ccccc3)n(CC3CC3)n2)CC1 [Example 474, Cis-4-(1-Cyclopropylmethyl-5-phenyl-1H-[1,2,4]triazol-3-yl)-1-phenyl-4-(4-trifluoromethylphenoxy)cyclohexanecarboxylic Acid]	< 1000 nM	85 °C
